The series concerns CCRIS mutagenicity, Ames/micronucleus/aberration tests. As to the kind of experiment: CCRIS mutagenicity studies.
Where [1] appears, read: Test System: AMES SALMONELLA TYPHIMURIUM, Strain/Indicator: TA98, Metabolic Activation: NONE, Method: PREINCUBATION
Where [2] appears, read: Test System: AMES SALMONELLA TYPHIMURIUM, Strain/Indicator: TA100, Metabolic Activation: NONE, Method: PREINCUBATION

The source made the active and inactive calls. No rule for the calls is given here.

For the molecule `O=S(O)CO`, the mutagenic call under setting [1] was “inactive; negative”; the mutagenic call (Test System: AMES SALMONELLA TYPHIMURIUM, Strain/Indicator: TA98, Metabolic Activation: RAT LIVER S-9, PHENOBARBITAL AND BETA-NAPHTHOFLAVONE, Method: PREINCUBATION) was “inactive; negative”; the mutagenic call under setting [2] is “inactive; negative”; the mutagenic call (Test System: AMES SALMONELLA TYPHIMURIUM, Strain/Indicator: TA100, Metabolic Activation: RAT LIVER S-9, PHENOBARBITAL AND BETA-NAPHTHOFLAVONE, Method: PREINCUBATION) was “inactive; negative”; the mutagenic call (Test System: AMES SALMONELLA TYPHIMURIUM, Strain/Indicator: TA102, Metabolic Activation: NONE, Method: PREINCUBATION) was “inactive; negative”; the mutagenic call (Test System: AMES SALMONELLA TYPHIMURIUM, Strain/Indicator: TA102, Metabolic Activation: RAT LIVER S-9, PHENOBARBITAL AND BETA-NAPHTHOFLAVONE, Method: PREINCUBATION) was “inactive; negative”. For the same molecule, the mutagenic call runs as follows: (Test System: AMES SALMONELLA TYPHIMURIUM, Strain/Indicator: TA104, Metabolic Activation: NONE, Method: PREINCUBATION) “inactive; negative”; (Test System: AMES SALMONELLA TYPHIMURIUM, Strain/Indicator: TA104, Metabolic Activation: RAT LIVER S-9, PHENOBARBITAL AND BETA-NAPHTHOFLAVONE, Method: PREINCUBATION) “inactive; negative”; (Test System: AMES SALMONELLA TYPHIMURIUM, Strain/Indicator: TA1535, Metabolic Activation: NONE, Method: PREINCUBATION) “inactive; negative”; (Test System: AMES SALMONELLA TYPHIMURIUM, Strain/Indicator: TA1535, Metabolic Activation: RAT LIVER S-9, PHENOBARBITAL AND BETA-NAPHTHOFLAVONE, Method: PREINCUBATION) “inactive; negative”; (Test System: AMES SALMONELLA TYPHIMURIUM, Strain/Indicator: TA1537, Metabolic Activation: NONE, Method: PREINCUBATION) “inactive; negative”; (Test System: AMES SALMONELLA TYPHIMURIUM, Strain/Indicator: TA1537, Metabolic Activation: RAT LIVER S-9, PHENOBARBITAL AND BETA-NAPHTHOFLAVONE, Method: PREINCUBATION) “inactive; negative”. Further, the mutagenic call was “inactive; negative” (Test System: E.COLI, Strain/Indicator: WP2UVRA/PKM101, Metabolic Activation: NONE, Method: PREINCUBATION); “inactive; negative” (Test System: E.COLI, Strain/Indicator: WP2UVRA/PKM101, Metabolic Activation: RAT LIVER S-9, PHENOBARBITAL AND BETA-NAPHTHOFLAVONE, Method: PREINCUBATION); “inactive; negative” (Test System: E.COLI, Strain/Indicator: WP2UVRA, Metabolic Activation: NONE, Method: PREINCUBATION); “inactive; negative” (Test System: E.COLI, Strain/Indicator: WP2UVRA, Metabolic Activation: RAT LIVER S-9, PHENOBARBITAL AND BETA-NAPHTHOFLAVONE, Method: PREINCUBATION).
With `O=CN(O)c1ccc(Oc2ccc(Cl)cc2)cc1`, the mutagenic call runs as follows: (Test System: AMES SALMONELLA TYPHIMURIUM, Strain/Indicator: TA100, Metabolic Activation: NONE, Method: STANDARD PLATE) “inactive; negative”; (Test System: AMES SALMONELLA TYPHIMURIUM, Strain/Indicator: TA100, Metabolic Activation: RAT, LIVER, S-9, KANECLOR 500, Method: STANDARD PLATE) “active; positive”.
As to `CN1CCNCC1`, the mutagenic call by setting is: under setting [1], “inactive; negative”; (Test System: AMES SALMONELLA TYPHIMURIUM, Strain/Indicator: TA98, Metabolic Activation: RAT, LIVER, S-9, PCB, Method: PREINCUBATION) “inactive; negative”; under setting [2], “inactive; negative”; (Test System: AMES SALMONELLA TYPHIMURIUM, Strain/Indicator: TA100, Metabolic Activation: RAT, LIVER, S-9, PCB, Method: PREINCUBATION) “inactive; negative”.
